Data published in PubChem BioAssay AID843 (The Scripps Research Institute Molecular Screening Center, 2007).
Activity calls are given as the source filed them. The rule behind the calls is not given here.

System: CRE-bla reporter cells, beta-lactamase FRET, activation
Assay: CRE beta-lactamase reporter activation – cell-based, beta-lactamase FRET, counter-screen for S1P2 agonist project, dose response (AID 843)

| SMILES | EC50 |
| --- | --- |
| Cc1cc(C(=O)CN2C(=O)CCC2=O)c(C)n1Cc1ccccc1 | > 50 µM (inactive) |
| C=CCn1c(N)cc(=O)nc1SCC(=O)Nc1ccccc1 | > 50 µM (inactive) |
| Cc1cc(Br)ccc1OCCCCNCCO | > 50 µM (inactive) |
| NC(=O)c1ccc(NC(=O)C2CCCO2)cc1 (configuration not stated) | > 50 µM (inactive) |
| COc1ccc(Cn2c(-c3ccco3)nc3oc4cc(OC)ccc4c(=O)c3c2=O)cc1 | > 50 µM (inactive) |
| Nc1c(C(=O)NCCCc2ccccc2)c2nc3ccccc3nc2n1Cc1cccs1 | 5.9 µM |
| Cc1cc(C)n2cc(CSc3nnnn3-c3ccc(Cl)cc3)nc2n1 | > 50 µM (inactive) |
| CCOC(=O)CN(C(=O)CSc1nnc(COc2ccc(OC)cc2)n1C)c1ccccc1 | > 50 µM (inactive) |
| CCCc1nn(-c2cc(Cl)ccc2OC)c2c1C(=O)CCC2 | > 50 µM (inactive) |
| Cc1cccc(C(=O)NC2CC3CCCC(C2)N3C(=O)NC2CCCCC2)c1 (configuration not stated) | > 50 µM (inactive) |
| Cc1cc(-c2nnc(SCC(=O)NC3CCCC3)o2)no1 | > 50 µM (inactive) |
| COC(=O)c1cn[nH]c1NC(=S)Nc1ccccc1C | > 50 µM (inactive) |
| Clc1ccc(N2N=C(c3cccs3)CC2c2ccco2)cc1 (configuration not stated) | 3.35 µM |
| c1ccc(OCCSc2nnnn2-c2ccccc2)cc1 | > 50 µM (inactive) |
| CCOC(=O)c1c(C)n(C)c2ccc(OCC(O)Cn3nc(C)cc3C)cc12 (configuration not stated) | > 50 µM (inactive) |
| CC(C)CNC(=O)c1c(N)n(Cc2ccc3c(c2)OCO3)c2nc3ccccc3nc12 | 5.66 µM |
| CN(C)CCCNS(=O)(=O)c1ccc(N2CCC(c3ccc(Cl)cc3)=N2)cc1 | 1.03 µM |
| CCN(CC)c1ccc(NC(=O)Nc2ccccc2C(F)(F)F)cc1 | > 50 µM (inactive) |
| c1ccc(-c2nc3ccccn3c2NCc2ccc3c(c2)OCO3)cc1 | > 50 µM (inactive) |
| O=c1c(-c2nc3ccccc3s2)cccn1Cc1ccc(Cl)cc1 | 3.43 µM |
| Clc1ccc2nc(N3CCNCC3)nc(-c3ccccc3)c2c1 | 9.98 µM |

| SMILES | EC50 |
| --- | --- |
| Cc1ccccc1-n1c(=O)c(C#N)cc2c(=O)n3ccccc3nc21 | 26.3 µM (inactive) |
| Cc1cccn2c(=O)c3cc(C(=O)NCCc4ccccc4)c(=N)n(CCCn4ccnc4)c3nc12 | 10.2 µM (inactive) |
| Cc1cc(C)c(S(=O)(=O)Nc2ccc(O)cc2)cc1C | > 50 µM (inactive) |
| CCOc1cccc(OCCCCn2ccnc2)c1 | > 50 µM (inactive) |
| Oc1cccc(C(=S)N2CCN(Cc3ccccc3)CC2)c1 | > 50 µM (inactive) |
| COCCNC(=O)CN1CCN(C(c2ccccc2)c2ccccc2)CC1 | > 50 µM (inactive) |
| Cc1cccc2cc(C(c3nnnn3CC3CCCO3)N3CCc4ccccc4C3)c(=O)[nH]c12 (configuration not stated) | > 50 µM (inactive) |
| CCOC(=O)c1cc2ccc(OC)c(OC)c2c(=O)s1 | > 50 µM (inactive) |
| CCC(=O)c1cc2c(C)cc(=O)oc2c(C)c1O | > 50 µM (inactive) |
| O=C(Nc1ccccn1)Nc1cccs1 | > 50 µM (inactive) |
| C(=C\c1ccccc1)/CSc1nnc(-c2ccccc2)n1Cc1ccco1 | > 50 µM (inactive) |
| COc1cccc(CNC(=O)CN(c2cc(C)cc(C)c2)S(=O)(=O)c2c(C)noc2C)c1 | > 50 µM (inactive) |
| O=C1CCCC(O)=C1C=NCCc1ccccc1 | > 50 µM (inactive) |
| CC(C)n1c(=N)c(C(=O)NCCc2ccccc2)cc2c(=O)n3ccccc3nc21 | 23.6 µM (inactive) |
| O=C(NCc1ccco1)c1cc2ccc(O)cc2oc1=O | 12.7 µM (inactive) |
| COc1ccc(C(c2c[nH]c3ccccc23)c2c[nH]c3ccccc23)cc1O | > 50 µM (inactive) |
| O=C(Cc1c[nH]c2ccccc12)Nc1nc2ccccc2[nH]1 | > 50 µM (inactive) |
| CCC(C)NC(=O)c1c(N)n(Cc2ccc3c(c2)OCO3)c2nc3ccccc3nc12 (configuration not stated) | 5.7 µM |
| COc1ccc2cc(S(=O)(=O)NCCCN3CCOCC3)ccc2c1 | > 50 µM (inactive) |
| O=C1SC(c2ccccc2)=N/C1=C/c1ccco1 | > 50 µM (inactive) |
| COc1cc2c(cc1OC)C1=C(C#N)CCC(=NC(=O)c3ccc(Cl)cc3)N1CC2 | 1.64 µM |

| SMILES | EC50 |
| --- | --- |
| CCC(C)n1c(NC(=O)c2ccccc2)c(C#N)c2nc3ccccc3nc21 (configuration not stated) | 2.95 µM |
| O=c1c(-c2nc3ccccc3s2)cccn1Cc1ccc(Cl)c(Cl)c1 | 3.29 µM |
| Clc1ccc(-c2ccc(/C=N/Nc3cc(N4CCOCC4)nc(N4CCOCC4)n3)o2)cc1 | 14.5 µM (inactive) |
| CS(=O)(=O)NCc1nnc(SCC(=O)NC2CCCCC2)n1-c1ccc(F)cc1 | > 50 µM (inactive) |
| O=c1c(-c2nc3ccccc3s2)cccn1Cc1ccccc1 | 6.82 µM |
| COc1ccccc1CNC(=O)c1c(N)n(CCCN2CCOCC2)c2nc3ccccc3nc12 | 22.9 µM (inactive) |
| O=S(=O)(c1ccc(N2CCC(c3ccc(Cl)cc3)=N2)cc1)N(CCO)CCO | 9.11 µM |
| O=S(=O)(Cc1ccc(Cl)cc1)NCC1CCCO1 (configuration not stated) | > 50 µM (inactive) |
| O=C(NCC1(c2ccccc2)CCCC1)C(=O)N1CCOCC1 | > 50 µM (inactive) |
| O=C(CCC(=O)N1CCc2ccccc21)Nc1ccccc1 | > 50 µM (inactive) |
| NS(=O)(=O)c1ccc(N2N=C(c3ccc(Br)cc3)CC2c2ccc(F)cc2)cc1 (configuration not stated) | 2.69 µM |
| Cc1ccc(CNC(=O)CCNC(=O)c2ccco2)cc1 | > 50 µM (inactive) |
| CCOC(=O)c1cc2ccc(OC(=O)c3ccco3)cc2oc1=O | 8.74 µM |
| CCOCCCNc1nc(=S)[nH]c2cc(OC)c(OC)cc12 | > 50 µM (inactive) |
| Cc1ccc(Cn2cccc(-c3nc4ccccc4s3)c2=O)cc1 | 24 µM (inactive) |
| N#CCN1CCN(CC(=O)Nc2cccc3ccccc23)CC1 | > 50 µM (inactive) |
| O=c1[nH]c(-c2cccs2)nc2ccccc12 | > 50 µM (inactive) |
| CC(C)CCNC(=O)c1c(N)n(Cc2ccc3c(c2)OCO3)c2nc3ccccc3nc12 | 6.45 µM |
| Cc1ccc(C2CC(=O)c3cnc(N4CCc5ccccc5C4)nc3C2)cc1 (configuration not stated) | > 50 µM (inactive) |
| COc1cc2c(cc1OC)C1=C(C#N)CCC(=O)N1CC2 | 2.96 µM |
